Legend:
Type in all cases: binding
[1] = molecular target: T1, 14-3-3σ/C-RAF259 (Homo sapiens, UniProt P31947); assay: Fluorescence anisotropy (FA) compound titration; settings: 10 nM C-RAF259-FAM 10-mer, 5 μΜ 14-3-3σ, overnight; for EC50: read-out: Compound titrations EC50 value C-RAF259
Procedure: (§1) In analogy to our previous work, two orthogonal assays were used for screening (Figure S2). […] Dose responses of compounds were performed in the absence and presence of the C-RAF259 phospho-peptide to distinguish between neutral binders and cooperative molecular glues. The experiment was performed as a time course, with measurements every 8 h, after an 1 h incubation. Additionally, the compounds were tested in a fluorescence anisotropy (FA) assay in the presence of the 5-carboxyfluorescein-(FAM)-labeled C-RAF259 peptide. […] The full dose–response data for all compounds are available in the SI (Tables S2–S5, Figures S5–S8, Figures S15–S18, Figures S25–S32, Figures S37–S39). The dose–response data from both assays were also visually compared in the form of bar graphs. […] For FA experiments, the EC50 values from the overnight measurement were calculated and plotted as bar graphs showing the […] log EC50 value (pEC50). Compounds acting as MGs were expected to show increases in both types of bar graphs.
(§2) transferred in the assay plates.
(§3) The reacton mixtures were incubated
(§4) dispensed in the assay plates.
(§5) incubaton at room temperature .

[2] = molecular target: T2, 14-3-3σ (Homo sapiens, UniProt P31947); assay: Intact mass spectrometry assay, apo (no peptide); design: full-length for mass spectrometry and fluorescence anisotropy assays; made in house; host or cells: E. coli Rosetta 2(DE3)pLysS, pPROEX HTb vector; settings: 1 μM compound, 100 nM 14-3-3σ
T2 sequence (P31947 1-248): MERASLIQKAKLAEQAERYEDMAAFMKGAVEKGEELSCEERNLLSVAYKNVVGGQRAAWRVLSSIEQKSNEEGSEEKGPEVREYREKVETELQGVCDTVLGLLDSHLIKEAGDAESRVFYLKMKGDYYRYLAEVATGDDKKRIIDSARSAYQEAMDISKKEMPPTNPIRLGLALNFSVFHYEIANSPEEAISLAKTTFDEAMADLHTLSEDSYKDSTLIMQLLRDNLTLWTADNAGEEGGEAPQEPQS
Procedure: as §1, §2, §3, §4, §5

[3] = molecular target: T1, 14-3-3σ/C-RAF259; assay: Intact mass spectrometry assay with C-RAF259 phospho-peptide; design: full-length for mass spectrometry and fluorescence anisotropy assays; made in house; host or cells: E. coli Rosetta 2(DE3)pLysS (14-3-3σ); peptides from Elim Biopharmaceuticals; settings: 1 μM compound, 100 nM 14-3-3σ, 18 µM peptide
Procedure: as §1, §2, §3, §4, §5

Row | EC50 [1] | % bound, APO, 1h [2] | % bound, APO, 8h [2] | % bound, APO, 16h [2] | % bound, APO, 24h [2] | % bound, C-RAF259 (11mer), 1h [3] | % bound, C-RAF259 (11mer), 8h [3] | % bound, C-RAF259 (11mer), 16h [3] | % bound, C-RAF259 (11mer), 24h [3] | Compound titrations EC50 value C-RAF259 [1] | Compound
1 | 9 ± 2 µM | – | – | – | – | – | – | – | – | – | O=C(CCl)N1CC2(C1)CN(S(=O)(=O)c1ccc(C(F)(F)F)c(F)c1)CCO2 [Compound 80]
2 | 5 ± 2 µM | – | – | – | – | – | – | – | – | – | O=C(CCl)N1CC2(CCCN(S(=O)(=O)c3ccc(Br)c(F)c3)C2)C1 [Compound 83]
3 | 87 ± 9 µM | 0.5% | 1.9% | 2.4% | 2.4% | 3.3% | 8.2% | 13.7% | 23.3% | – | O=C(CCl)NCC1CCN(S(=O)(=O)c2ccccc2F)CC1 [Compound 15]
4 | > 1000 µM | 0% | 0.9% | 1.9% | 7.4% | 6.1% | 9.9% | 20.6% | 34.6% | – | O=C(CCl)NC1CC2(CCN(S(=O)(=O)c3ccc(Br)c(F)c3)CC2)C1 [Compound 55]
5 | 94 ± 9 µM | 2.9% | 11.3% | 18.5% | 28.6% | 25% | 45.1% | 64.3% | 80.2% | – | O=C(CCl)N1CC2(CCN(S(=O)(=O)c3ccc(Br)c(F)c3)CC2(F)F)C1 [Compound 52]
6 | 47 ± 4 µM | 1.9% | 5.2% | 13.8% | 15.9% | 11.1% | 32.4% | 53.8% | 86.6% | – | O=C(CCl)N1CC2(CCN(S(=O)(=O)c3ccc(Br)c(F)c3)CC2)C1 [Compound 49]
7 | 26 ± 3 µM | 0% | 0% | 1.9% | 5.2% | 4.3% | 11.3% | 22.6% | 34.1% | – | O=C(CCl)NCC1CCN(S(=O)(=O)c2ccc3c(c2)OCO3)CC1 [Compound 26]
8 | 14 ± 1 µM | 2.9% | 9.1% | 15.9% | 23% | 15% | 30.4% | 55.6% | 81.5% | – | O=C(CCl)N1CC2(CC(NS(=O)(=O)c3ccc(Br)c(F)c3)CO2)C1 (centres unmarked) [Compound 67]
9 | 5 ± 1 µM | – | – | – | – | – | – | – | – | – | O=C(CCl)NCC1CCN(S(=O)(=O)c2ccc(Br)c(F)c2)CC1 [Compound 37]
10 | > 150 µM | 0% | 1% | 1.9% | 2.9% | 3.3% | 8.2% | 18% | 32.4% | – | O=C(CCl)NCC1CCN(S(=O)(=O)c2cccc(F)c2)CC1 [Compound 16]
11 | > 250 µM | 5.6% | 14.5% | 36.2% | 53.9% | 43% | 65.8% | 82% | – | – | O=C(CCl)N1CC[C@]2(CCN(S(=O)(=O)c3ccc(Br)c(F)c3)C2)C1 [Compound 89]
12 | 4 ± 1 µM | – | – | – | – | – | – | – | – | – | O=C(CCl)NCC1CCN(S(=O)(=O)c2ccc(C(F)(F)F)c(F)c2)CC1 [Compound 32]
13 | 66 ± 4 µM | 4.7% | 4.7% | 4.7% | 4.7% | 4.7% | 5.6% | 5.7% | 13% | – | O=C(CCl)NCC1CCN(S(=O)(=O)c2ccccc2)CC1 [Compound 10]
14 | > 1000 µM | 0% | 1.5% | 2.5% | 4.3% | 0.9% | 2.9% | 5.6% | 14.1% | – | O=C(CCl)NCCCC1CCN(S(=O)(=O)c2ccc(Cl)cc2)CC1 [Compound 13]
15 | 82 ± 6 µM | 1.9% | 2.5% | 3% | 15% | 4.7% | 7.4% | 9.9% | 20.9% | – | O=C(CCl)NCC1CCN(S(=O)(=O)c2ccc(Cl)nc2)CC1 [Compound 14]
16 | 78 ± 7 µM | 5.2% | 13.3% | 21.8% | 36.8% | 37.1% | 68% | 80.9% | 83.3% | – | O=C(CCl)N1CC2CCC1CC2NS(=O)(=O)c1ccc(Br)c(F)c1 (centres unmarked) [Compound 61]
17 | > 1000 µM | 0% | 0% | 0% | 0% | 0% | 0% | 0% | 2.9% | completely inactive | C=C(F)C(=O)N1CC2(CCN(S(=O)(=O)c3ccc(Br)c(F)c3)CC2(F)F)C1 [Compound 75]
18 | > 1000 µM | 0% | 1.5% | 1.5% | 3.8% | 1.9% | 2.9% | 12.1% | 31% | – | O=C(CCl)NCc1ccc(NS(=O)(=O)c2ccc(Br)c(F)c2)cc1 [Compound 73]
19 | > 1000 µM | 0% | 0.5% | 0.9% | 0.9% | 0.5% | 0.9% | 0.9% | 3.8% | – | O=C(CCl)NCC1CCN(S(=O)(=O)C2CCC3(CC2)CC3(F)F)CC1 (centres unmarked) [Compound 34]
20 | > 1000 µM | 0% | 0% | 0% | 0% | 0% | 0% | 0% | 4.7% | completely inactive | O=C(C(Cl)Cl)N1CC2(CCN(S(=O)(=O)c3ccc(Br)c(F)c3)CC2(F)F)C1 [Compound 74]

Row | Compound | EC50 [1] | % bound, APO, 1h [2] | % bound, APO, 8h [2] | % bound, APO, 16h [2] | % bound, APO, 24h [2] | % bound, C-RAF259 (11mer), 1h [3] | % bound, C-RAF259 (11mer), 8h [3] | % bound, C-RAF259 (11mer), 16h [3] | % bound, C-RAF259 (11mer), 24h [3] | Compound titrations EC50 value C-RAF259 [1]
21 | O=C(CCl)NCC1CCN(S(=O)(=O)Cc2ccccc2)CC1 [Compound 6] | > 1000 µM | 0% | 1% | 4.7% | 4.7% | 0.9% | 2.9% | 6.5% | 7% | –
22 | O=C(CCl)NCC1CCN(S(=O)(=O)Cc2ccc(F)cc2)CC1 [Compound 7] | > 1000 µM | 1% | 1.9% | 1.9% | 2.9% | 1.5% | 1.5% | 2.5% | 4.7% | –

— PMC12903857
